Results: patent US11629165B2, “Molecules for targeting ribosomes and ribosome-interacting proteins, and uses thereof” (Immagina Biotechnology S.r.l., priority 2018, dated 2023)
Each block holds one compound with its values, some of them ahead of it.

Tests used:
Format in all cases: cell-based
[1] = system: cellular proteins of HEK-293 and MCF7 cell lines; assay: 3Px probe protein labelling, UV irradiation, anti-puromycin immunoblot
Method: For our initial analysis, we treated HEK-293 and MCF7 cell lines in complete culture medium with the 3PB probe (10 μM) for 10 min, followed by irradiation for 5 min on ice (total power: 0.75 J/cm2). We first assessed 3PB labeling of cellular proteins using SDS-PAGE analysis. […] Then, we compared the labelling activity of 3PB, 3PA and 3PBis in HEK293 and MCF7 cells, adding the probes before or after cell lysis. In the latter case, each probe is incubated for 1 h in the cytoplasmic cell extract at 4° C., followed by UV irradiation (0.75 J/cm^2) of the treated lysate. […] Therefore, both 3PB and 3PBis show additional bands with MW=˜50 kDa, when reacted in the cell lysate, with respect to the situation when probes are incubated with growing cells (FIG. 6a). […] This is presumably due to the higher hydrophobicity of the 3PBis probe and a consequent better cell membrane penetration (FIG. 7).
To test 3PN and 3PO activity, we treated MCF7 cells with different concentrations of the two drugs for 10 min, followed by UV-356 irradiation.
Reaction in cell culture: MCF7 or HEK-293 cells were grown to 80% of confluence and treated with CHX (10 μg/mL, 5 min, 37° C.) and then with the probe (10 min, 37 C). Cells were then washed with cold PBS (containing CHX 10 μg/mL), placed on ice and irradiated under a UV lamp (BLX-365, 5×8 W) at 365 nm for 5 min (0.75 J/cm^2) followed by lysis with hypotonic cytoplasmic buffer. Reaction in the cell lysate: HEK-293 or MCF7 cells were treated with CHX (10 μg/mL, 5 min). After hypotonic lysis and precipitation of nuclei and cellular debris by centrifugations at 18000 g, 4° C., 5 min, the supernatant was diluted to A260=1 a.u/μL with 10 mM NaCl, 10 mM MgCl2, 20 μg/mL cycloheximide, 10 mM Hepes, pH 7 in DEPC water, to a final volume of 150 μL. The diluted lysate was then incubated with the reactive probe for 1 hour in a 12-well plate and then UV-irradiated (BLX-365) at 365 nm for 5 min (0.75 J/cm2).
Cell lysates were prepared as described above. Proteins were separated by SDS-polyacrylamide gel electrophoresis and transferred onto PVDF membranes. […]

[2] = system: MCF7 cells; assay: Probe labelling after puromycin/CHX treatment, CuAAC Cy3-azide, in-gel fluorescence; conditions: MCF7, puromycin 20 and 100 μM 2 hours; 3PB 100 μM or 3PBis 50 μM, 10 min
Method: Next, we asked if the labelling is sensitive on puromycin treatment (i.e. dependent on ribosome activity). To do that, we first treated MCF7 cell with puromycin followed by 10 min incubation with 3PB or 3PBis. When used in minimal amounts, puromycin can be incorporated in neosynthesized proteins^25, while high concentrations as well as long incubation times, fully block translation. We first define the concentration that allows puromycin to be incorporated in the nascent peptide chain (i.e. 20 μM), and the range of concentrations that completely depress translation in our biological model (i.e. 50 μM, 100 μM and 200 μM, FIG. 10a). We treat MCF7 cells with both 20 and 100 μM puromycin for 2 hours before adding 3PB (100 μM, 10 min) or 3PBis (50 μM, 10 min). Probe-labeled proteins were coupled to a Cy3-azide reporter tag using CuAAC chemistry, separated by SDS-PAGE and detected by in-gel fluorescence scanning. We observed about 50% reduction of the labelling at 65 kDa after puromycin treatment for both probes (FIG. 5c-d). […] To better understand if the labelling is related to the activity of the ribosomal peptidyl transferase centre (PTC), we pre-treated cells with high concentrations of CHX (350 μM) before adding puromycin (100 μM) to fully block the ribosome catalytic activity^8. […]

[3] = system: MCF7 cells; assay: Polysome profiling of probe-treated cells; conditions: MCF7, 50 μM, 10 min
Method: To better understand the effect of 3Px on the global translation efficiency, we compared the polysome profiles from DMSO and probes-treated cells. By treating MCF7 cells with 50 μM 3PBis or 3PB for 10 min, we observed a 10% reduction of the polysome/80S ratio (calculated by comparing the area under the 80S peak and the combined area under the polysome peaks, FIG. 11a). This effect is independent from the UV-treatment. Incubation of 3PB and 3PBis for longer times (7 hours or 18 hours) results in a depression of the polysome/80S area ratio of >50%, meaning that treatments with 3PBis can depress translation, increasing the 80S pick and reducing heavy polyribosomes (FIG. 11b).
Cells were incubated for 5 minutes with cycloheximide 10 μg/mL at 37° C. to trap the ribosomes on the mRNAs. Cells were then washed with PBS complemented with cycloheximide (10 μg/mL) and scraped directly on the plate with 300 μL of lysis buffer (10 mM NaCl, 10 mM MgCl2, 10 mM Tris-HCl, pH 7.5, 1% Triton X-100, 1% sodium deoxycholate, […], 5 U/mL DNAse I, 200 U/mL RNase inhibitor, and 10 μg/mL cycloheximide, protease inhibitor). Nuclei and cellular debris were removed by three consecutive centrifugations (800 g, 5 min at 4° C.). […] The fraction corresponding to the 40S, 60S and 80S peaks and those corresponding to polysomes were collected monitoring the absorbance at 254 nm. […]

[4] = system: ATP-binding site of GRP78; assay: Competition with VER-155008 on probe labelling; conditions: MCF7, VER-155008 100 μM 1 hour before probe
Method: In total, 114 protein targets were identified from in-column digestion (called data set 1, n=4), 204 targets from in-gel digestion (called data set 2, n=4) and 1085 from in-bead digestion (called data set 3, n=2, FIG. 12c). The 3PB-beads pull down reflects the “double band” pattern observed with the incubation of 3PB/3PBis in the cell lysate (FIG. 12b). To increase the stringency of our in-beads digestion data set, we performed an enrichment analysis over control Peg-beads (n=2) and we identified 333 proteins setting a cut-off fold-enrichment (FC)≥1.3 between 3PB- and Peg-beads, while 166 proteins are identified with a FC≥2.5. By using the less stringent filter (FC≥1.3) and looking for proteins in common in the three data set, we identified 15 proteins as putative 3PB targets. These factors are known to be involved in tRNAs selection and ribosome elongation (eEF1A, eEF2, eEF4G), ribosome structure (RPL18), protein folding (HSP5A, HSP90AB1, PPIA), metabolism (PHGFH, ENO1, GAPDH, ALB), RNA processing (HNRNPK) and cellular structure (KRT2, KRT10, ACTB). […] After pull-down assay using avidin-magnetic beads (FIG. 12e and FIG. 13a) we observed the presence of the lower HSPA5/GRP78 band, while the upper band (although dominant in the input) was not detected. […]

[5] = system: 28S ribosomal RNA; assay: Labelling of rRNA by 3PBis, Cy3 in-gel fluorescence; conditions: MCF7, Cy3 conjugation, total RNA agarose gel
Method: FIG. 20. 3PBis-ribosome interaction and labelling of 28S rRNA. MCF7 cells were incubated with 3PBis, fixed and conjugated with Cy3. After extraction, total RNA was run in agarose gel and stained with Syber gold or visualized by in-gel fluorescence scanning.
We investigated the possibility that 3Px molecules directly reacts in the ribosome itself. If 3Px enters the ribosome as puromycin does, it should bind only the large ribosomal subunit, and in particular the rRNA 28S that form the catalytic pocket of the ribosome.

[6] = system: MCF7 cells; assay: Puromycin concentration effect on translation, puromycin immunoblot; conditions: MCF7, 2 hours
Method: FIG. 10. Effect of ribosome inhibitors on 3PB/3PBis binding. (a) Immunoblot of puromycin on total protein extracts from, MCF7 cell treated with increasing concentrations of puromycin (incubation time: 2 hours). CHX+Puro: 350 μM CHX before puromycin treatment (20, 50, 100, 200 μM). 3PBis treatment: (50 μM, 10 min); −, not treatment. (b) On the left, immunoblot with anti-puromycin antibody on total protein extracts from MCF7 cells treat with the indicated drugs. CHX, 350 μM, 5 min; Puromycin, 100 μM, 2 hours; 3PB, 50 μM, 10 min. On the right, CuAAC coupling with Biotin-azide was performed on the cell lysate before total protein extract and SDS-PAGE. The staining of the membrane was performed with Streptavidin-HRP. (c) Sketch that summarize the effect of puromycin treatment on the 3PB-3PBis labelling.
Next, we asked if the labelling is sensitive on puromycin treatment (i.e. dependent on ribosome activity). To do that, we first treated MCF7 cell with puromycin followed by 10 min incubation with 3PB or 3PBis. When used in minimal amounts, puromycin can be incorporated in neosynthesized proteins^25, while high concentrations as well as long incubation times, fully block translation. […] Probe-labeled proteins were coupled to a Cy3-azide reporter tag using CuAAC chemistry, separated by SDS-PAGE and detected by in-gel fluorescence scanning. […]

- reduction of probe labelling by VER-155008 [4]: 1.2 ×
Structure (SMILES): C#CCOCCC(=O)NCCOCCOCCNC(=O)N[C@@H](Cc1ccc(OC)cc1)C(=O)N[C@H]1C(OC(=O)OCCC2(C)N=N2)C(n2cnc3c(N(C)C)ncnc32)O[C@@H]1COC(=O)OCCC1(C)N=N1 (some centres unmarked) [3PBis]
- protein labeling signal ([1]; HEK293 and MCF7, probes added before or after cell lysis, UV 0.75 J/cm2): concentration-dependent increases in protein labeling
- functional (binding) activity ([1]; depending on position of UV-active diazirine on ribose): possess the functional activity
- reduction of the labelling at 65 kDa after puromycin treatment [2]: about 50%
- reduction of the polysome/80S ratio [3]: 10%
- interaction with 28S rRNA [5]: directly interact with the 28S ribosomal RNA

Structure (SMILES): C#CCOc1cc(C2(C(F)(F)F)N=N2)ccc1C(=O)N[C@@H](Cc1ccc(OC)cc1)C(=O)N[C@H]1[C@@H](O)[C@H](n2cnc3c(N(C)C)ncnc32)O[C@@H]1CO [3PN]
- labelling efficiency after anisomycin and arsenite pre-treatment ([1]; MCF7, FIG. 8a): strong reduction

Structure (SMILES): COc1ccc(C[C@H](N)C(=O)N[C@H]2[C@@H](O)[C@H](n3cnc4c(N(C)C)ncnc43)O[C@@H]2CO)cc1 [puromycin, Puromycin]
- concentration that allows puromycin to be incorporated in the nascent peptide chain [6]: 20 µM
